Read-outs that look alike come from different tables or passages of the source. Marks after values point to notes of the source that are not given here. Values belong to the molecule of their own block, whether it stands above or below them.
Key:
[1] = tested on: CT26 allograft tumor (MSS subtype colorectal carcinoma); experiment: CT26 subcutaneous tumor model, HDAC inhibitors with or without RMP1-14; details: for response in the mice on the growth of tumor (individual tumor volumes): compared to vehicle group or to other combinations, ABT-301 100 mg/kg, vorinostat 100 mg/kg, citarinostat 50 mg/kg, RMP1-14 200 μg
Protocol: MC-38 cells (purchased from Kerafast, Inc.), derived from C57BL/6 murine colon adenocarcinoma cells typically classified as microsatellite instable, were maintained in DMEM with 10% fetal bovine serum, 100 U/mL penicillin, 100 μg/mL streptomycin, 10 mM HEPES, and 1× nonessential amino acid. All the cells were maintained in a humidified atmosphere having 5% CO2 at 37° C.
(§1) Female BALB/c mice (BALB/cByJNarl) aged 5-7 weeks (for CT26 subcutaneous tumor model), and female C57BL/6 mice (C57BL/6JNarl) aged 5-7 weeks (for MC-38 subcutaneous tumor model), were housed in standard cages within the animal facility at the Industrial Technology Research Institute (ITRI). A one-week acclimatization period preceded the commencement of the study, with the health of the mice monitored daily. Animals were kept in rooms at 22-26° C. with 40-70% humidity, positive pressure, 60% air recirculation, ventilation rate 15-20 changes per hour, and a controlled light-dark cycle (12-12 hours).
(§2) CT26 cells (2×10^5) were suspended in 100 μl of PBS and subcutaneously inoculated into the right flank of female BALB/c mice. Tumors were measured with calipers, and tumor size was calculated as follows: tumor volume (V)=(L×S^2)/2 (L, longest diameter, mm; S, shortest diameter, mm). Tumor size and body weight of mice were monitored and recorded twice to thrice per week. The antitumor activities of treatments were expressed as percentages of tumor growth inhibition (% TGI), as calculated using the following formula: [1−(final tumor volume−initial tumor volume for treated group)/(final tumor volume−initial tumor volume for vehicle group)]×100. Body weight of each mouse was also compared to that on the first day of treatment (Day 0) and expressed as a percentage of Day 0 value.
When mean tumor volume reached about 80-100 mm^3, treatments were initiated and the day of treatment initiation was designated as Day 0. […] Treatments were administered for indicated period (31 days) or until humane endpoints. Eight or nine mice were used in each group. […] RMP1-14 was prepared with PBS.

colorectal cancer tumor = experiment: Another batch: HDAC inhibitors (PCI-34051, elevenostat, ABT-301) with or without RMP1-14 in tumor-bearing mice; type: in vivo, mouse; details: another batch of experiments, data not shown; compared to vehicle group or to other combinations
HDAC7 = target: T1, HDAC7 (Homo sapiens, UniProt Q8WUI4); experiment: HDAC enzymatic activity assay (fluorogenic, Reaction Biology)
T1 sequence (Q8WUI4 1-952): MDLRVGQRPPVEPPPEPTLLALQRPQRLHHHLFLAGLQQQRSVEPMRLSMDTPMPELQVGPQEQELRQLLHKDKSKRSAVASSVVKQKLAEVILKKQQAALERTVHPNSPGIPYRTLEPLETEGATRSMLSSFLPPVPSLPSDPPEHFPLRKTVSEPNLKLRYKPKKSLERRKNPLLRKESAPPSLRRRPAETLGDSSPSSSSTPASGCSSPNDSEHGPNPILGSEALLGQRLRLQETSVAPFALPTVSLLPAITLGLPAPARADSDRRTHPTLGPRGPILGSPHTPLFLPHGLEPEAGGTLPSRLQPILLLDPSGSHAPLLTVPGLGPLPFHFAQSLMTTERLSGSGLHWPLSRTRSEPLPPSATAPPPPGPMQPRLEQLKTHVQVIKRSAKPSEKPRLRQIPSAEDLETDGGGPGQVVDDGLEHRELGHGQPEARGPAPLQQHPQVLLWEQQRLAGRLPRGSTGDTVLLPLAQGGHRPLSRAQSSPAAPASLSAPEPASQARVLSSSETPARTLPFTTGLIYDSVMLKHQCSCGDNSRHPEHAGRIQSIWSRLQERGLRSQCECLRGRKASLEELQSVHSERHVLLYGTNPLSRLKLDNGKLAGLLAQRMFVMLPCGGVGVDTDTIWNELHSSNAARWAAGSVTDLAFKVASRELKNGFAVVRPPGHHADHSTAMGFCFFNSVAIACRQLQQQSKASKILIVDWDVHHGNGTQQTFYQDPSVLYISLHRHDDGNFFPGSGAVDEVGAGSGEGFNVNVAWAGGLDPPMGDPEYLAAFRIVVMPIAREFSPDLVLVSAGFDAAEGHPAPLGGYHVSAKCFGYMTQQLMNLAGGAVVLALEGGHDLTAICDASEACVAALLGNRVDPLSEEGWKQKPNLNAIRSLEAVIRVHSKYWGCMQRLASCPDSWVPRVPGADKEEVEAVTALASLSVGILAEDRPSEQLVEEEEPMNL

HDAC10 = target: T2, HDAC10 (Homo sapiens, UniProt Q969S8); experiment: as above
T2 sequence (Q969S8 1-669): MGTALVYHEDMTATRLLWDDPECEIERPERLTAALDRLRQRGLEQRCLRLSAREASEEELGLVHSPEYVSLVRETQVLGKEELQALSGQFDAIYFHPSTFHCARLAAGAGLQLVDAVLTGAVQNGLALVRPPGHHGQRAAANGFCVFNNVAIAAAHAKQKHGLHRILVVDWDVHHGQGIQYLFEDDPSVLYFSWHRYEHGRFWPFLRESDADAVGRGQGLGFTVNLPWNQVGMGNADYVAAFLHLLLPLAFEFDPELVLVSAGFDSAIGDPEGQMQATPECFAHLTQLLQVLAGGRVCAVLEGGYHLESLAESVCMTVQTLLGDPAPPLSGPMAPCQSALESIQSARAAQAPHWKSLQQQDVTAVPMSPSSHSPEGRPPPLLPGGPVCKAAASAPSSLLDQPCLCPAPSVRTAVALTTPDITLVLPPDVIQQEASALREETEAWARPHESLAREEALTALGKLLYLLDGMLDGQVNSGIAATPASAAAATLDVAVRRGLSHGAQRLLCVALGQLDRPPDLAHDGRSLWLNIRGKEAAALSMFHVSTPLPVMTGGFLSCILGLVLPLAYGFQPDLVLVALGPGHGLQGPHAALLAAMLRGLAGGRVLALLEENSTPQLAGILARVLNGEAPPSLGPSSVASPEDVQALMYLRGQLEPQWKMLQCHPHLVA

HDAC9 = HDAC9 (Homo sapiens, UniProt Q9UKV0); experiment: as above
Chain of HDAC9 (Q9UKV0 whole entry): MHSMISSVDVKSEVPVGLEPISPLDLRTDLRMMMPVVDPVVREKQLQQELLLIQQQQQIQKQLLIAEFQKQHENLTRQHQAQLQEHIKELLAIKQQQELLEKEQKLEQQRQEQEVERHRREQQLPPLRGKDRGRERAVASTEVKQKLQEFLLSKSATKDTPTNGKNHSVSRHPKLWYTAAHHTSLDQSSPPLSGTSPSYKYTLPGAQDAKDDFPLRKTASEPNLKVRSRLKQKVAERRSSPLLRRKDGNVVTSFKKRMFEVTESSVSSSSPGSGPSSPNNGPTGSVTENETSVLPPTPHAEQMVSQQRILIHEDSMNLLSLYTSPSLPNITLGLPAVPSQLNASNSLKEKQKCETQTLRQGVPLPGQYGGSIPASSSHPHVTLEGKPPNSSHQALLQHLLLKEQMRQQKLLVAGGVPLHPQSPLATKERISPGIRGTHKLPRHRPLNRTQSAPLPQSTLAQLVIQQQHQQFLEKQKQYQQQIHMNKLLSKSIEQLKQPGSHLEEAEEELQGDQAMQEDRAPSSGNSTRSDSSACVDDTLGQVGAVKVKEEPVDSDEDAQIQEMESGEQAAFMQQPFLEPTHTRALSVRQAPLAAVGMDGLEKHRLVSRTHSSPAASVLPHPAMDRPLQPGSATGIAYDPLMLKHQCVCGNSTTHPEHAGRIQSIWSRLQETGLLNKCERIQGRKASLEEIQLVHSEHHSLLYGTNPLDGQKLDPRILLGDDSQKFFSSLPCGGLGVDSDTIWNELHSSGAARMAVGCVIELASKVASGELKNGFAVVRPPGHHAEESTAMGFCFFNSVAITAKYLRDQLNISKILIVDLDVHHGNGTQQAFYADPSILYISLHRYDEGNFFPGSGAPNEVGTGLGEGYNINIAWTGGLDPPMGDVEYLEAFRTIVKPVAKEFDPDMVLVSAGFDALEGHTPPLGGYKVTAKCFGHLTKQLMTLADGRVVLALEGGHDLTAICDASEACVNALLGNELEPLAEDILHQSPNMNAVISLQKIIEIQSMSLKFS

HDAC11 = target: T3, HDAC11 (Homo sapiens, UniProt Q96DB2); experiment: as above
T3 sequence (Q96DB2 1-347): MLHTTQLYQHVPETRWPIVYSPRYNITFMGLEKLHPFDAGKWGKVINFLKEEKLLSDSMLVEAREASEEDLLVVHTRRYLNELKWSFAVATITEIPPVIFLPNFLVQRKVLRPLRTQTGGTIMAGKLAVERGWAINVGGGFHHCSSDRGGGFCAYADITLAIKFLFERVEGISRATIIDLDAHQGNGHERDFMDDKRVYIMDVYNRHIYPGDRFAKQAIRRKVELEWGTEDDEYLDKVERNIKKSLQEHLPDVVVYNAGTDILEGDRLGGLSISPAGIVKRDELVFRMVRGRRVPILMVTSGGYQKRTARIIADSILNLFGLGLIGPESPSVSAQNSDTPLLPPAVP

[2] = tested on: CT26 allograft tumor (MSS subtype colorectal carcinoma)
Protocol: As described herein, tumor responses were evaluated using Response Evaluation Criteria in Solid Tumors (RECIST) criteria. Complete response (CR) was defined as complete disappearance of measurable or evaluable tumor lesions; partial response (PR) was defined as reduction of the size of measurable tumor lesions by at least 30% (≥30%) compared to the original tumor size; stable disease (SD) was defined as reduction of the size of measurable tumor lesions by less than 30% (<30%) or enlargement of the size of measurable tumor lesions by less than 20% (<20%) compared to the original tumor size; and progressive disease (PD) was defined as growth of the tumor by more than 30% (>30%) in the tumor volume compared to the original tumor size or development of new lesions.
All the cells were maintained in a humidified atmosphere having 5% CO2 at 37° C.
as §1, §2
The administration of treatments commenced five days following the inoculation of CT26 cells, with the day of treatment initiation designated as Day 0. When mean tumor volume reached 50-100 mm^3, the mice were assigned into four groups through S-type grouping according to tumor size. […] Eight mice were used in each group. Treatments were administered for 43 days. […] Avelumab was prepared with PBS.

[3] = tested on: MC-38 allograft tumor (MSI-H subtype colorectal carcinoma)
Protocol: As described herein, tumor responses were evaluated using Response Evaluation Criteria in Solid Tumors (RECIST) criteria. Complete response (CR) was defined as complete disappearance of measurable or evaluable tumor lesions; partial response (PR) was defined as reduction of the size of measurable tumor lesions by at least 30% (≥30%) compared to the original tumor size; stable disease (SD) was defined as reduction of the size of measurable tumor lesions by less than 30% (<30%) or enlargement of the size of measurable tumor lesions by less than 20% (<20%) compared to the original tumor size; and progressive disease (PD) was defined as growth of the tumor by more than 30% (>30%) in the tumor volume compared to the original tumor size or development of new lesions. […]
Female BALB/c mice (BALB/cByJNarl) aged 5-7 weeks (for CT26 subcutaneous tumor model), and female C57BL/6 mice (C57BL/6JNarl) aged 5-7 weeks (for MC-38 subcutaneous tumor model), were housed in standard cages within the animal facility at the Industrial Technology Research Institute (ITRI). A one-week acclimatization period preceded the commencement of the study, with the health of the mice monitored daily. […]
MC-38 cells (2×10^5) were suspended in 100 μl of PBS and subcutaneously inoculated into the right flank of female C57BL/6 mice. Tumors were measured with calipers, and tumor size was calculated as follows: tumor volume (V)=(LxS^2)/2 (L, longest diameter, mm; S, shortest diameter, mm). Tumor size and body weight of mice were monitored and recorded twice to thrice per week. The antitumor activities of treatments were expressed as percentages of tumor growth inhibition (% TGI), as calculated using the following formula: [1−(final tumor volume−initial tumor volume for treated group)/(final tumor volume−initial tumor volume for vehicle group)]×100. Body weight of each mouse was also compared to that on the first day of treatment (Day 0) and expressed as a percentage of Day 0 value. […]

[4] = tested on: CT26 allograft tumor (MSS subtype colorectal carcinoma); experiment: CT26 subcutaneous tumor model, multiple doses of ABT-301 with or without avelumab; type: in vivo, mouse
Protocol: Treatments were administered for indicated period (24 days) or until humane endpoints. Ten mice were used in each group. […] Avelumab was prepared with PBS.

[5] = Day 28 after treatments, ABT-301 100 mg/kg PO, avelumab 100 μg IP, means ± SEM

Molecule: O=C(CCCCCCNC(=O)c1cnc(N(c2ccccc2)c2ccccc2Cl)nc1)NO [Citarinostat]
TGI (tumor growth inhibition) ([1]; Day 22 after treatments, ABT-301 100 mg/kg PO, vorinostat 100 mg/kg PO, citarinostat 50 mg/kg IP, RMP1-14 200 μg IP): 38% | response in the mice on the growth of tumor (individual tumor volumes) [1]: did not elicit a visible response

Molecule: COc1ccc(Cn2ccc3ccc(C(=O)NO)cc32)cc1 [PCI-34051]
response in the mice on the growth of tumor (colorectal cancer tumor): did not elicit a visible response

IC50 (HDAC7): > 3 µM | IC50 (HDAC10): > 3 µM | IC50 (HDAC9): > 3 µM | IC50 (HDAC11): > 3 µM
Molecule: Nc1cc(F)ccc1NC(=O)c1ccc(CNC(=O)/C=C/c2cccnc2)cc1 [Tucidinostat, reference compound]

Molecule: O=C(CCCCCCC(=O)Nc1ccccc1)NO [Vorinostat]
response in the mice on the growth of tumor (individual tumor volumes) [1]: did not elicit a visible response

Molecule: COc1ccccc1NC(=O)NCc1ccc(C(=O)NO)cc1 [elevenostat]
response in the mice on the growth of tumor (colorectal cancer tumor): did not elicit a visible response

Molecule: Avelumab: an anti-PD-L1 antibody [reference compound]
complete response (CR) rate ([2]; CT26-bearing BALB/c mice, n=8/group, ABT-301 100 mg/kg PO QD, avelumab 100 μg IP BIW): 1/8 | Median survival ([2]; CT26 allograft tumor mice, over the entire study, ABT-301 100 mg/kg PO QD, avelumab 100 μg IP BIW): 28 days | TGI (tumor growth inhibition) [2, 5]: 58.51 ± 14.14% | Tumor size [2, 5]: 559.63 ± 156.94 mm^3 | Tumor size ([3]; Day 25 after treatments, ABT-301 100 mg/kg PO, avelumab 200 μg IP, RMP1-14 200 μg IP, means ± SEM): 529.91 ± 329.24 mm^3 | complete response (CR) rate ([3]; MC-38-bearing C57BL/6 mice, n=8/group, ABT-301 100 mg/kg PO QD, avelumab 200 μg IP BIW, RMP1-14 200 μg IP BIW): 4/8 | Median survival ([3]; MC-38 allograft tumor mice, over the entire study, ABT-301 100 mg/kg PO QD, avelumab or RMP1-14 200 μg IP BIW): 68 days | Tumor size ([4]; Day 24 after treatments, avelumab 200 μg alone, means ± SEM): 31.79 ± 26.66** mm^3 | number of mice exhibiting complete response (CR) ([4]; avelumab 200 μg IP BIW alone, out of 10 mice): 7

— patent publication US20240277663A1, “PHARMACEUTICAL KITS AND USES THEREOF FOR TREATING COLORECTAL CANCER” (priority 2023, published 2024)
